Assay results as given in patent US9145402B2, “Aminopyrimidine derivatives as LRRK2 modulators” (Genentech, Inc., priority 2011, dated 2015).

Molecular target: LRRK2 (Homo sapiens (Human), UniProt Q5S007, G2019S)
Test: In Vitro LRRK2 LabChip Assay (LRRK2 Ki)
Assay type: biochemical
Method: In Vitro LRRK2 LabChip Assay
This assay was used to determine a compound's potency in inhibiting activity of LRRK2 by determining, Kiapp, IC50, or percent inhibition values. In a polypropylene plate, LRRK2, fluorescently-labeled peptide substrate, ATP and test compound were incubated together. Using a LabChip 3000 (Caliper Life Sciences), after the reaction the substrate was separated by capillary electrophoresis into two populations: phosphorylated and unphosphorylated. The relative amounts of each were quantitated by fluorescence intensity. LRRK2 Ki was determined according to the equation: Y=V0*(1−((x+Ki*(1+S/Km)+Et)/(2*Et)−(((x+Ki*(1+S/Km)+Et)^2−(4*Et*x))^0.5)/(2*Et))). Ki values in Table 4 and elsewhere herein are shown in μM.
Assay conditions and materials used were as follows:
Kinase reaction time: 2 hours
Wild type in 5 mM MgCl2: 80 μM
Solid Support: Black 50 μL volume polypropylene 384 well plate (MatriCal cat #MP101-1-PP)
Non-binding plate: 384 well clear V-bottom polypropylene plates (Greiner cat #781280).
ATP: 10 mM ATP (Cell Signaling cat #9804).
Coating Reagent #3: Coating Reagent #3 (Caliper).
Complete Reaction Buffer: H2O/25 mM Tris, pH 8.0/5 mM MgCl2/2 mM DTT/0.01% Triton X-100.
Stop Solution: H2O/100 mM HEPES, pH 7.2/0.015% Brij-35/0.2% Coating Reagent #3/20 mM EDTA.
Separation Buffer: H2O/100 mM HEPES, pH 7.2/0.015% Brij-35/0.1% Coating Reagent #3/1:200 Coating Reagent #8/10 mM EDTA/5% DMSO.
Compound Plate Preparation:
For serial dilutions, 34.6 μl DMSO was added to columns 3-24. For the assay controls, 37.5 μl DMSO was added to columns 1 and 2 of rows A and P. a,d and 50 μl 25 μM G-028831 (Staurosporine) was added to columns 1 and 2, row B. For the samples: to start at 100 μM, 37.5 μl DMSO was to columns 1 and 2, then 12.5 μl 10 mM compound; to start at 10 μM, 78 μl DMSO was added to columns 1 & 2, then 2 μl 10 mM compound; and to start at 1 μM, 25 μM compound (2 μl 10 mM cmpd+798 μl DMSO) was added to empty columns 1 and 2. A Precision instrument was used to perform 1:3.16 serial dilutions (“PLK_BM_serial_halflog”).
ATP was diluted to 282.1 μM in Complete Kinase Buffer (final concentration was 130 μM).
Total and Blank Preparation:
In Complete Reaction Buffer, substrate was diluted to 4 μM. Equal volumes of Complete Reaction Buffer and 4 μM substrate were combined to obtain the blank. Equal volumes of Complete Reaction Buffer and 4 μM substrate were combined and to the combined solution was added 2× final LRRK2 concentration.
To a 50 μl polypropylene plate, 5 μl/well buffer/substrate was added by hand to Blank wells. A Biomek FX was used to start the kinase reaction (“PLK SAR 23 ATP”). The following were added to the appropriate wells:
5 μl/well compound/ATP in Assay Plate;
5 μl/well kinase/substrate in Assay Plate;
The plate was incubated for 2 hours in the dark. Biomek FX was used to stop the kinase reaction (“PLK Stop”), and 10 μl/well Stop solution was added to the Assay Plate. Results were read on the LabChip 3000.
The LabChip 3000 was run using the job “LRRK2 IC50” with the following job settings:
Downstream voltage: −500 V
Upstream voltage: −2350 V
Post sample buffer sip time: 75 seconds
Post dye buffer sip time: 75 seconds
Final delay time: 200 seconds

LRRK2, sequence (Q5S007 970-2527 G2019S): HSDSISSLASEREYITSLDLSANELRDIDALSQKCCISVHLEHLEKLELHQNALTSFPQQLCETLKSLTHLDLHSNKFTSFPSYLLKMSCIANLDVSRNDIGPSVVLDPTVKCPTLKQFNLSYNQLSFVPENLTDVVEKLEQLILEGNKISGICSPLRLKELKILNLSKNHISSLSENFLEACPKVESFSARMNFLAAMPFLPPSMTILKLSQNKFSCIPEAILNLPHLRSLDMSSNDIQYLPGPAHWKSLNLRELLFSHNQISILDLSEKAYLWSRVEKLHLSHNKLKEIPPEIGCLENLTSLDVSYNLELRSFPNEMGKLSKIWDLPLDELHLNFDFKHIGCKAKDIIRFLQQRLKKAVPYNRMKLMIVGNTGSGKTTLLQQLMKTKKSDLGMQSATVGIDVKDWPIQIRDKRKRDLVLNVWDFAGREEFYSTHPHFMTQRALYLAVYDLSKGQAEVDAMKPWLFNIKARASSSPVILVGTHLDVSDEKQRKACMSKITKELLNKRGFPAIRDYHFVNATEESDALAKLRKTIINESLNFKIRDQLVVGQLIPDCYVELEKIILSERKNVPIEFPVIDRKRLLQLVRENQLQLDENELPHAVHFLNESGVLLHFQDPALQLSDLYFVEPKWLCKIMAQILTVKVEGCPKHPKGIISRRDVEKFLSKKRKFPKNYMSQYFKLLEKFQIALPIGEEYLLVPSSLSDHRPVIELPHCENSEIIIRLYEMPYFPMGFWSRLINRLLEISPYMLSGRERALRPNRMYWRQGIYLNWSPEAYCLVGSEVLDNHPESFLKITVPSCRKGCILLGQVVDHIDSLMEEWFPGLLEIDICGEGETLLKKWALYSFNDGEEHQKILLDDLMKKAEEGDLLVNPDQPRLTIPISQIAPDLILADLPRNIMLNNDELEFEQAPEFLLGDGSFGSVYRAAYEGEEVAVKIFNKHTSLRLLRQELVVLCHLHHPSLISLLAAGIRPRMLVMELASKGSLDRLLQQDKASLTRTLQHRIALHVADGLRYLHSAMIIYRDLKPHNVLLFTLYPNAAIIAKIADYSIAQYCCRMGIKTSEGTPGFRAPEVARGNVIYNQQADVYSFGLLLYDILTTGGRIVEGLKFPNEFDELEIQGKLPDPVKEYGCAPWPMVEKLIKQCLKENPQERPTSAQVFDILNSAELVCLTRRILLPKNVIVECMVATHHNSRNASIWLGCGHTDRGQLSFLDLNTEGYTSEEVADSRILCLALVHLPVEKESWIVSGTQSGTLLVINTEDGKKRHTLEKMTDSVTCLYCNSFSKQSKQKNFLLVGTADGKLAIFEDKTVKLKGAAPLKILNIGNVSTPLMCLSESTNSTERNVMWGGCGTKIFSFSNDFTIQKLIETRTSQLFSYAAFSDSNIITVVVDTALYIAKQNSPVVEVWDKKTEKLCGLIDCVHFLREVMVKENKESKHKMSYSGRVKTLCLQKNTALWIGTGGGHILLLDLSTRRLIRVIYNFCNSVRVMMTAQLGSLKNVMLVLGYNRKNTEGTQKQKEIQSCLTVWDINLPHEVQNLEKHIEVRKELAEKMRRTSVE

Ki [nM]	SMILES
3	CNc1nc(Nc2cc(F)c(C3COC3)cc2OC)ncc1C(F)(F)F [Example 33, N2-(5-fluoro-2-methoxy-4-(oxetan-3-yl)phenyl)-N4-methyl-5-(trifluoromethyl)pyrimidine-2,4-diamine]
3	CCS(=O)(=O)c1cc(OC)c(Nc2ncc(C(F)(F)F)c(NC)n2)cc1C [Example 35, N2-(4-(ethylsulfonyl)-2-methoxy-5-methylphenyl)-N4-methyl-5-(trifluoromethyl)pyrimidine-2,4-diamine]
3	CNc1nc(Nc2cc(C)c(S(C)(=O)=O)cc2OC)ncc1C(F)(F)F [Example 36, N2-(2-methoxy-5-methyl-4-(methylsulfonyl)phenyl)-N4-methyl-5-(trifluoromethyl)pyrimidine-2,4-diamine]
56	CNc1nc(Nc2cc(F)c(CN3CCOCC3)cc2OC)ncc1C(F)(F)F [Example 37, N2-(5-fluoro-2-methoxy-4-(morpholinomethyl)phenyl)-N4-methyl-5-(trifluoromethyl)pyrimidine-2,4-diamine]

Continued, molecule first:

SMILES	Ki [nM]
CNc1nc(Nc2cc(F)c(N3CCCCC3=O)cc2OC)ncc1C(F)(F)F [Example 32, 1-(2-fluoro-5-methoxy-4-(4-(methylamino)-5-(trifluoromethyl)pyrimidin-2-ylamino)phenyl)piperidin-2-one]	5.5
CCNc1nc(Nc2cc(C)c(S(C)(=O)=O)cc2OC)ncc1C(F)(F)F [Example 34, N4-ethyl-N2-(2-methoxy-5-methyl-4-(methylsulfonyl)phenyl)-5-(trifluoromethyl)pyrimidine-2,4-diamine]	3
CCNc1nc(Nc2ccc(S(C)(=O)=O)c3c2OCCO3)ncc1C(F)(F)F [Example 38, N4-ethyl-N2-(8-(methylsulfonyl)-2,3-dihydrobenzo[b][1,4]dioxin-5-yl)-5-(trifluoromethyl)pyrimidine-2,4-diamine]	3
